Literature values as cited in patent publication US11833140B2, “Compositions and methods for treating, ameliorating and preventing H. pylori infections” (priority 2017, dated 2023).

Columns and labels:
[1] = tested on: H. pylori (HP); conditions: first line therapy, with amoxicillin and clarithromycin
[2] = tested on: CYP2C19
[3] = biological target: T1, H^+/K^+—ATPAs (Homo sapiens, UniProt P20648); conditions: within 4 hours of its first administration in humans
T1 construct: increase intragastric pH to at least over pH 4.0 within 4 hours of its first administration in humans; host or cells: human stomach in vivo
T1 sequence (P20648 whole entry): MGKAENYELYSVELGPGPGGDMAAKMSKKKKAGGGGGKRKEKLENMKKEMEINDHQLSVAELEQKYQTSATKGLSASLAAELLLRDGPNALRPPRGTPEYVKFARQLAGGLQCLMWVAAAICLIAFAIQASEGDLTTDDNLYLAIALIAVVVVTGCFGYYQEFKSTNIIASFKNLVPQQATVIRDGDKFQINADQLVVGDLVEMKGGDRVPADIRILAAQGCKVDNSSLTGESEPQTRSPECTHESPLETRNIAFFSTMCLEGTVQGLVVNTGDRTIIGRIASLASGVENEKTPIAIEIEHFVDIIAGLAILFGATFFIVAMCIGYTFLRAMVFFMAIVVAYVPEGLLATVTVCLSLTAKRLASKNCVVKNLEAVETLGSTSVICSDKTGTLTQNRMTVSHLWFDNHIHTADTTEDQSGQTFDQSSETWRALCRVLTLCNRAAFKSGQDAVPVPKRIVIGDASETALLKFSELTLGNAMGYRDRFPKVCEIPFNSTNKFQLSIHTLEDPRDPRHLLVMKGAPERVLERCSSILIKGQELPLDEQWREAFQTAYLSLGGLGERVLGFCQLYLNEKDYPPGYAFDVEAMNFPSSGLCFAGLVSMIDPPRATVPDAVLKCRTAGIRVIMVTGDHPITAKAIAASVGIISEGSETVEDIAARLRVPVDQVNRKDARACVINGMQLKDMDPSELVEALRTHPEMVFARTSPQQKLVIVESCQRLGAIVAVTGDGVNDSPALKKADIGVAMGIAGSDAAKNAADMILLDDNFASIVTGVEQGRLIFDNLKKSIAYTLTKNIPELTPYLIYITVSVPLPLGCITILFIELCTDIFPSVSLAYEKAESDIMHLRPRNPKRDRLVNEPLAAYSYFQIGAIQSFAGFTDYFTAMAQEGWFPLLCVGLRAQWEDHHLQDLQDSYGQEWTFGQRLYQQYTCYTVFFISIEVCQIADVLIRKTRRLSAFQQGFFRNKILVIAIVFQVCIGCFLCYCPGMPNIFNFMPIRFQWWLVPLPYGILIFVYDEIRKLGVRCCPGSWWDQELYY
T1 sequence (P51164 whole entry partner): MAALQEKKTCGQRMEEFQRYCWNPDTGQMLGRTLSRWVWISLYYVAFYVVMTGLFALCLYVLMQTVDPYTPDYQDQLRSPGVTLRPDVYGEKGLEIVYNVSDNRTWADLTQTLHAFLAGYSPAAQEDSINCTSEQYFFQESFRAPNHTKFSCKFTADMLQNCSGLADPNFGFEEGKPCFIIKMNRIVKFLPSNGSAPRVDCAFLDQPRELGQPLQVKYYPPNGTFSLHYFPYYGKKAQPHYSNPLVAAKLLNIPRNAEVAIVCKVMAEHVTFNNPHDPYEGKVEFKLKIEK

[4] = after a single 20 mg ingestion
[5] = compared with conventional PPI's
[6] = biological target: CYP3A4 (Homo sapiens, UniProt P08684)
Sequence of CYP3A4 (P08684 whole entry): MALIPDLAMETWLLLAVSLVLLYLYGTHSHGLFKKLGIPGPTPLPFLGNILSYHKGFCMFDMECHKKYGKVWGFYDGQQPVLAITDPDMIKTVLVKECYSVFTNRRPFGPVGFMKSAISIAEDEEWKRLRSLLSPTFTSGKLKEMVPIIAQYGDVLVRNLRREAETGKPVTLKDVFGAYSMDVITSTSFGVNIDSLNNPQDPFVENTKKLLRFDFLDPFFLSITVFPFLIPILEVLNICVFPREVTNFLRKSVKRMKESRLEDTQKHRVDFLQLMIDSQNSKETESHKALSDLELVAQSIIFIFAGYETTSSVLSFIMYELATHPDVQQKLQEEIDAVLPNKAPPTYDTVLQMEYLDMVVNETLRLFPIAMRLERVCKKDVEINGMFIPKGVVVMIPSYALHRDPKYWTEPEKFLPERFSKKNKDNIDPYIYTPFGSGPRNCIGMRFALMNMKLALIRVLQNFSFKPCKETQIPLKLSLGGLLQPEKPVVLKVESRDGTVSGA

SMILES | H. pylori (HP) eradication rate [1] [%] | metabolised through the hepatic CYP2C19 haplotypes [2] | intragastric pH [3] [pH] | plasma half-life [4] [h] | stability at neutral pH [5] | metabolised by [6]
Cc1c(OCC(F)(F)F)ccnc1C[S+]([O-])c1nc2ccccc2[nH]1 (stereo not drawn) [lansoprazole] | 76 |  |  |  |  | 
CNCc1cc(-c2ccccc2F)n(S(=O)(=O)c2cccnc2)c1.O=C(O)/C=C/C(=O)O [vonoprazan, 1-(5-(2-fluorophenyl)-1-(pyridin-3-ylsulfonyl)-1H-pyrrol-3-yl)-N-methylmethanamine fumarate] |  | not metabolised | > 4.0 | 7 | more stable | by the CYP3A4 system
